From patent US20130123368A1, “METHODS OF REDUCING 15-F2T-ISOP LEVELS IN MAMMALS” (BIOACTIVES, INC., priority 2007, published 2013)

Experiments:
Caco-2 cell monolayers [1] = experiment: Permeability of xanthohumol across Caco-2 cell monolayers; type: in vitro ADME; settings: for Percent Recovery: Caco-2, B-to-A, 2 μM in HBSSg, 37° C.
Protocol: Percent Recovery=100×((Vr×Cr^final)+(Vd×Cd^final))/(Vd×C0)
Where: • dCr/dt is the slope of the cumulative concentration in the receiver compartment versus time in μM s^−1. • Vr is the volume of the receiver compartment in cm^3. • Vd is the volume of the donor compartment in cm^3. • A is the area of the cell-free insert (1.13 cm^2 for 12-well Transwell). • Cr^final is the cumulative receiver concentration in μM at the end of the incubation period. • Cd^final is the concentration of the donor in μM at the end of the incubation period. • C0 is the initial concentration of the dosing solution in μM.
Each determination was performed in duplicate.

Caco-2 cell monolayers [2] = experiment: Certification of Caco-2 Transwell plates with reference compounds; type: in vitro ADME; settings: plate certification TW12, passage 63, age 22 days
Protocol: To test the permeability of xanthohumol across Caco-2 cell monolayers, Caco-2 cell monolayers were grown to confluence on collagen-coated, microporous, polycarbonate membranes in 12-well Costar Transwell® plates. Details of the plates and their certification are shown below in Table 3. The test article was also the aqueous xanthohumol formulation, and the dosing concentration was 2 μM in the assay buffer (HBSSg) as in the previous example. Cell monolayers were dosed on the apical side (A-to-B) or basolateral side (B-to-A) and incubated at 37° C. with 5% CO2 in a humidified incubator. Samples were taken from the donor chamber at 120 minutes, and samples from the receiver chamber were collected at 60 and 120 minutes. Each determination was performed in duplicate. Lucifer yellow permeability was also measured for each monolayer after being subjected to the test article to ensure no damage was inflicted to the cell monolayers during the permeability experiment. All samples were assayed for Xanthohumol by LC/MS/MS using electrospray ionization. The apparent permeability (Papp), and percent recovery were calculated as described above.

Significant Efflux (Caco-2 cell monolayers [1]; Caco-2)	Percent Recovery (Caco-2 cell monolayers [1]; Average)	Percent Recovery (Caco-2 cell monolayers [1]; Rep. 1)	Lucifer yellow Papp, post-experiment integrity control (Caco-2 cell monolayers [1]; all monolayers after exposure to the test article)	Papp (Caco-2 cell monolayers [2])	Molecule	Absorption Potential (Caco-2 cell monolayers [1]; Caco-2, classification by Papp(A-to-B))
No	81	81			COc1cc(O)c(CC=C(C)C)c(O)c1C(=O)/C=C/c1ccc(O)cc1 [Xanthohumol, 2′,4′,4-trihydroxy-6′-methoxy-3′-prenylchalcone]	Medium (1.0 × 10^−6 cm/s > Papp(A-to-B) ≧ 0.5 × 10^−6 cm/s Medium)
			< 0.8 ×10⁻⁶ cm/s	0.13 ×10⁻⁶ cm/s	Lucifer Yellow [reference compound]	
